Experimental data from ChEMBL document CHEMBL1123486, “Probes for narcotic receptor mediated phenomena. 9. Synthesis of (+/-)-(3 alpha,6a alpha,11a beta)-1,3,4,5,6,11a-hexahydro-2-methyl-2H-3,6a- methanobenzofuro[2,3-c]azocin-10-ol, an oxide-bridged 5-(m-hydroxyphenyl)morphan” (J Med Chem, 1986).

biological target: Opioid receptor (Rattus norvegicus, UniProt P33533+P34975+P33535); assay: Binding affinity towards opioid receptor; assay type: protein assay

Structure (SMILES)	IC50
CN1CC2Oc3cc(O)ccc3[C@@]23CCCC1C3 (stereo partly drawn)	1000 nM
CN1CC[C@@]23CC1CC[C@@H]2Oc1c(O)cccc13	1766 nM
CN1CC[C@]23CCCC1[C@H]2Oc1c(O)cccc13	96 nM
